Assay results from patent US20250326722A1 (SHANGHAI HANSOH BIOMEDICAL CO., LTD., priority 2022, published 2025).

Experiments:
[1] = system: LDLR level in HepG2 cells; assay: Effect on the LDLR level in HepG2 cells (ELISA); type: cell-based, human; design: concentration or dose not given beside the values; conditions: 48 hours incubation, LDLR ELISA of lysate
Procedure: To detect the effect of the compounds on the LDLR protein level.
Envision (PE-Cisbio: 2105-0020), centrifuge (Eppendorf: 5810R), water purifier (THERMO: Pacific T II+Micropure), plate washer (Thermo: […] VERSA), and microplate shaker (Thermo: 88882006)
• 1) HepG2 cell strain was cultured in the complete culture medium at 37° C., 5% CO2 to 70-90% confluence. • 2) The cells were digested and resuspended in the experimental culture medium, inoculation was performed at 25,000 cells/well/200 μL in a 96-well cell culture plate, and the cells were cultured at 37° C., 5% CO2 for 20-24 hours. • 3) The culture medium was removed from the cell culture plate, and the cell culture plate was washed once by adding 200 μl of the experimental culture medium to each well. • 4) Preparation of positive control compound and compound to be tested: the positive control compound and the compound to be tested were diluted on the compound plate. • 5) The diluted compound was added to the cell culture plate at 250 μL per well and incubated at 37° C. and 5% CO2 for 48 hours. • 6) The cell culture medium was removed, the cells were washed with PBS, and 50 μL of the cell lysis buffer and the protein inhibitor were added. • 7) After centrifugation, the lysate was removed and the sample was stored for later use. • 8) Preparation of standard curve: corresponding volumes of Dilution buffer were successively added to respective standard tubes, and the standard was diluted in series by taking the corresponding volume from the original tube or the last concentration tube. • 9) Preparation of washing liquid: 10× Wash buffer was diluted into 1× with Milli-Q for later use. • 10) According to the standard curve wells and sample wells set according to a plate map, 80 μL/well of the corresponding standards and samples were added to the wells, with 2 replicate wells. A well in which no standard was added was used as a background value well. A self-adhesive seal was applied, the plate was placed on a plate shaker at room temperature, gently shaken, uniformly mixed, and incubated for 2 hours. • 11) The plate was placed on the plate washer, the washing liquid was set to 350 μL per well, and the plate was washed 4 times repeatedly. • 12) 200 μL of Human LDLR conjugate was added, a self-adhesive seal was applied, and the plate was placed on the plate shaker, well mixed uniformly, and incubated for 2 hours. • 13) The plate was placed on the plate washer, the washing liquid was set to 350 μL per well, and the plate was washed 4 times repeatedly. • 14) 200 μL/well of Substrate solution was added, and the plate was placed in the dark, applied with a self-adhesive seal, placed on the plate shaker, well mixed uniformly, and incubated for 20 minutes. • 15) 50 μL/well of Stop solution was added and mixed uniformly over 20 min. • 16) The optical density (OD) value in each well was measured in sequence at a wavelength of 450 nm by the microplate reader.
(§1) After the OD values were read by the microplate reader, the OD value of the 0-concentration standard in the standard group was subtracted from the OD values of the standards, control group, and samples to obtain the actual OD values for these wells. A standard curve was plotted with Graphpad and the concentration of the sample was calculated. If the dilution was performed during the sample detection, the calculated sample concentration was necessarily multiplied by the corresponding dilution ratio in the final calculation, which was the actual concentration of the sample. Concentration increase %=(actual concentration in control-actual concentration in sample)/actual concentration in control*100.

[2] = molecular target: PCSK9 secreted by HepG2 cells (Homo sapiens (Human), UniProt Q8NBP7); assay: Effect on the concentration of PCSK9 secreted by HepG2 cells (ELISA); type: cell-based; conditions: 48 hours incubation, read-out: Inhibitory activity on PCSK9, IC50
PCSK9 secreted by HepG2 cells, sequence (Q8NBP7 153-692): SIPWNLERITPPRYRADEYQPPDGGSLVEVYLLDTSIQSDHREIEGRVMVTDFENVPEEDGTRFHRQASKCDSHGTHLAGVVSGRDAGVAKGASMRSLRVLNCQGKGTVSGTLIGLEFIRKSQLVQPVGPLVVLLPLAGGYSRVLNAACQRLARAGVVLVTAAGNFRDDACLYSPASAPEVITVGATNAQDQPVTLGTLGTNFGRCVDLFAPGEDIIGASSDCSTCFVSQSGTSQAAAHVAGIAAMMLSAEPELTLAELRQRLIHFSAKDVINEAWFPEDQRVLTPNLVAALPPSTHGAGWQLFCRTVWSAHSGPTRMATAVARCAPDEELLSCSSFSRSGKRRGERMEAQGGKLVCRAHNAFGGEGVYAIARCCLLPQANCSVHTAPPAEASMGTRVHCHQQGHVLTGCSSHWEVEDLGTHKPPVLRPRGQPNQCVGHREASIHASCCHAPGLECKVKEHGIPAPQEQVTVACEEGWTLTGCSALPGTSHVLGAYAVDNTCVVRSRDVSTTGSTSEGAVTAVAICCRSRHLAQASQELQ
PCSK9 secreted by HepG2 cells, sequence (Q8NBP7 31-152 partner): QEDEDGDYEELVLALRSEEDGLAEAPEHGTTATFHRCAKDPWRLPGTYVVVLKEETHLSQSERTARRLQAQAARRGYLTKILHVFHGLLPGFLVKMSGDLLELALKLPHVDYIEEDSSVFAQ
From the text: • 1. Experimental objective: To detect the inhibitory effect of the compounds on PCSK9. • 2. Experimental instruments and reagents: • 2.1 Instruments:
• CircuLex Human PCSK9 ELISA kit (MBL: CY-8079); • DMEM (Gibco: 31966-021) • FBS (Sigma: S5394) • Compound plate (Thermo: 1353506) • Complete culture medium: DMEM+10% FBS+1×P/S; • Experimental culture medium: DMEM+10% FBS • Cell strain: HepG2 (ATCC: HB-8065)
A self-adhesive seal was applied, the plate was placed on a plate shaker at room temperature, gently shaken, uniformly mixed, and incubated for 1 hour. • 11) The plate was placed on the plate washer, the washing liquid was set to 350 μL per well, and the plate was washed 4 times repeatedly. • 12) 100 μL/well of an HRP-conjugated detection antibody was added, a self-adhesive seal was applied, and the plate was placed on the plate shaker, well mixed uniformly, and incubated for 1 hour. • 13) The plate was placed on the plate washer, the washing liquid was set to 350 μL per well, and the plate was washed 4 times repeatedly. • 14) 100 μL/well of Substrate reagent was added, and the plate was placed in the dark, applied with a self-adhesive seal, placed on the plate shaker, well mixed uniformly, and incubated for 10-20 minutes. • 15) 100 μL/well of Stop solution (1N H2SO4) was added and mixed uniformly. • 16) The optical density (OD) value in each well was measured in sequence at a wavelength of 450 nm by the microplate reader. Detection was carried out within 30 min after the reaction was stopped.
as §1, with “Inhibition rate=(actual” for “Concentration increase %=(actual”, “control*100. According to the inhibition rates corresponding to the different concentrations, IC50 was derived by Graphpad.” for “control*100.”

[3] = molecular target: PCSK9 protein (Homo sapiens (Human), UniProt Q8NBP7); assay: Binding experiment: surface plasmon resonance (SPR) binding to PCSK9 protein
PCSK9 protein, sequence (Q8NBP7 153-692): as the sequence (Q8NBP7 153-692) above
From the text: • 1. Experimental objective: To detect the action of compounds to bind PCSK9 protein by a conventional surface plasmon resonance (SPR) method.

[4] = Pharmacokinetic determination in mice (plasma); type: in vivo, C57BL/6J mice; conditions: C57 mice, PO administration, 5 mpk; for AUC(0-inf) / half-life / MRT / Cmax: male, C57BL/6J, mouse, 5 mg/kg; for AUC(0-inf): read-out: Area under the curve AUC0-∞; for half-life: read-out: Half-life t1/2 (converted); for MRT: read-out: Mean residence time MRT; for Cmax: read-out: Plasma concentration Cmax
Procedure: C57BL/6J mice were used as test animals to study the pharmacokinetic behavior of the compounds of the present disclosure in mice (plasma) after oral and intravenous administration.
C57 mice, male, purchased from Shanghai Bk Lab Animal Co., Ltd., with animal production license number (SCXK (Shanghai) 2013-0006 NO.311620400001794).
• Preparation of oral drug: 10% Solutol HS15
10 g of Solutol HS15 solid was weighed, dissolved in 90 mL of pure water, uniformly mixed, stirred, and ultrasonically treated to form a clear solution.
The compound of the present disclosure was weighed and dissolved in this solution, uniformly shaken, and ultrasonically treated for 15 minutes to obtain a colorless clear solution with a concentration of 0.5 mg/mL. • Preparation of intravenous drug: 5% DMSO+10% Solutol HS15+85% PBS […]
3 male C57 mice were fasted overnight and then respectively administered PO at a dose of 5 mg/kg and a volume of 10 mL/kg. […]
Before and after administration of mice, 0.04 mL of blood was collected from the orbit at 0.083 (iv), 0.25, 0.5, 1, 2, 4, 8, and 24 hours, and placed in EDTA-K2 test tubes, which was centrifuged at 6000 rpm at 4° C. for 6 min to separate plasma which was stored at −80° C.; and the […] were fed 4 h after administration.
The final determination results were obtained by using an LCMS/MS method.
The main pharmacokinetic parameters were calculated using WinNonlin 6.1.

SMILES | LDLR expression level [1] [%] | IC50 [2] [µM] | also measured
O=c1c(-c2ccc(N[C@H]3CC[C@H](Nc4ncc(OC(F)F)cn4)C3)nc2)ccc2ccccn12 [Example 47] | 859 | 18 | 
FC(F)Oc1cnc(N[C@H]2CC[C@H](Nc3ccc(-c4cccc5ccnn45)cn3)C2)nc1 [Example 52, (1S,3S)—N1-(5-(difluoromethoxy)pyrimidin-2-yl)-N3-(5-(pyrazolo[1,5-a]pyridin-7-yl)pyridin-2-yl)cyclopentane-1,3-diamine] | 278 | 11 | 
FC(F)Oc1cnc(N[C@H]2CC[C@H](Nc3ccc(-c4cccn5ccnc45)cn3)C2)nc1 [Example 53] | 175 | 24.1 | 
O=C1c2ccncc2CN1c1ccc(N[C@H]2CC[C@H](Nc3ncc(OC(F)F)cn3)C2)nc1 [Example 76, 2-(6-(((1S,3S)-3-((5-(difluoromethoxy)pyrimidin-2-yl)amino)cyclopentyl)amino)pyridin-3-yl)-2,3-dihydro-1H-pyrrolo[3,4-c]pyridin-1-one] | 156 | 12.1 | 
O=S1(=O)CCCCN1c1ccc(N[C@H]2CC[C@H](Nc3ncc(OC(F)F)cn3)C2)nc1 [Example 92, 2-(6-(((1S,3S)-3-((5-(difluoromethoxy)pyrimidin-2-yl)amino)cyclopentyl)amino)pyridin-3-yl)-1,4-butanesulfolactam] | 105 | 16.3 | 
N#Cc1cnn2c(-c3ccc(N[C@H]4CC[C@H](Nc5ncc(OC(F)F)cn5)C4)nc3)cccc12 [Example 99, 7-(6-(((1S,3S)-3-((5-(difluoromethoxy)pyrimidin-2-yl)amino)cyclopentyl)amino)-3-yl) pyrazolo[1,5-a]pyridine-3-carbonitrile] | 274 | 2.6 | 
Fc1cnn2c(-c3ccc(N[C@H]4CC[C@H](Nc5ncc(OC(F)F)cn5)C4)nc3)cccc12 [Example 102, (1S,3S)—N1-(5-(difluoromethoxy)pyrimidin-2-yl)-N^3-(5-(3-fluoropyrazolo[1,5-a]pyridin-7-yl)pyridin-2-yl)cyclopentane-1,3-diamine] | 215 | 6.3 | 
O=C1c2cccnc2CN1c1ccc(NC2CCC(Nc3ncc(OC(F)(F)F)cn3)C2)nc1 [Example 122, 6-(6-(((1S,3S)-3-((5-(trifluoromethoxy)pyrimidin-2-yl)amino)cyclopentylamino)pyridin-3-yl)-6,7-dihydro-5H-pyrrolo[3,4-b]pyridin-5-one] |  | 1.2 | Kd [3]: 0.0022 µM; Area under the curve AUC0-∞ [4]: 13239 ng·h/mL; Half-life t1/2 [4]: 3.2 h; Mean residence time MRT [4]: 4.5 h; Plasma concentration Cmax [4]: 2333 ng/mL; Time to peak tmax [4]: 0.5 h
O=C1c2cccnc2CN1c1ccc(N[C@H]2CC[C@H](Nc3ncc(C(F)(F)F)nn3)C2)nc1 [Example 145] |  | 24.5 | Kd [3]: 0.0032 µM; Time to peak tmax [4]: 0.5 h; AUC(0-inf) [4]: 12200 ng·h/mL; half-life [4]: 3.8 h; MRT [4]: 4.6 h; Cmax [4]: 2370 ng/mL
O=C1c2nc(C(F)(F)F)ccc2CN1c1ccc(N[C@H]2CC[C@H](Nc3nc4cc(F)ccn4n3)C2)nc1 [Example 155, 6-(6-(((1S,3S)-3-((7-fluoro-[1,2,4]triazolo[1,5-a]pyridin-2-yl)amino)cyclopentyl)amino)pyridin-3-yl)-2-(trifluoromethyl)-5,6-dihydro-7H-pyrrolo[3,4-b]pyridin-7-one] |  | 19.9 | Kd [3]: 0.0028 µM; Time to peak tmax [4]: 0.5 h; AUC(0-inf) [4]: 25500 ng·h/mL; half-life [4]: 5.9 h; MRT [4]: 1.9 h; Cmax [4]: 10000 ng/mL
O=C1c2nc(C(F)(F)F)ccc2CN1c1ccc(N[C@H]2CC[C@H](Nc3ncc(C4CC4)nn3)C2)nc1 [Example 159, 6-(6-(((1S,3S)-3-((6-cyclopropyl-1,2,4-triazin-3-yl)amino)cyclopentyl)amino)pyridin-3-yl)-2-(trifluoromethyl)-5,6-dihydro-7H-pyrrolo[3,4-b]pyridin-7-one] | 105 | 5.9 | 
CC(C)(C)c1ccc2c(n1)C(=O)N(c1ccc(N[C@H]3CC[C@H](Nc4nc5cc(F)ccn5n4)C3)nc1)C2 [Example 164, 2-(Tert-butyl)-6-(6-(((1S,3S)-3-((7-fluoro-[1,2,4]triazolo[1,5-a]pyridin-2-yl)amino)cyclopentyl)amino)pyridin-3-yl)-5,6-dihydro-7H-pyrrolo[3,4-b]pyridin-7-one] | 254 | 2.8 | 
